Experimental data: patent publication US20220218614A1, “IONIZABLE CATIONIC LIPIDS AND LIPID NANOPARTICLES, AND METHODS OF SYNTHESIS AND USE THEREOF” (Tidal Therapeutics, Inc., priority 2020, published 2022)
Entries after “also recorded” stand apart in the source; their conditions may differ.

Experiments:
human CD3 T cells = assay: Transfection of human CD3 T cells (CD8 and CD4 subsets) with Fab/Nb-targeted LNPs; assay type: cell-based; settings: targeted Lipid 8 LNP (Lipid 5 in Example 43), GFP mRNA approximately 2.5 μg/mL, approximately 24 hr
Description: (§1) LNPs were prepared using the mixing process described in Example 6, the buffer exchange process described below in Example 21. Using methods similar to Example 12, hSP34 and TRX2 Fab-lipid conjugates and a non-T cell specific anti-HER2 lipid-conjugate (Nellis D F, Ekstrom D L, Kirpotin D B, Zhu J, Andersson R, Broadt T L, Ouellette T F, Perkins S C, Roach J M, Drummond D C, Hong K, Marks J D, Park J W and Giardina S L (2005) Preclinical manufacture of an anti-HER2 scFv-PEG-DSPE, liposome-inserting conjugate. 1. Gram-scale production and purification. Biotechnol Prog 21:205-220) were post-inserted at various densities (SP34 0.25-17 g/mol; TRX2 0.25-9 g/mol; SP34+TRX2 0.25-9 g/mol each conjugate; anti-HER2 17 g/mol) into LNPs containing Lipid 8 and anti-CD20 targeting CART mRNA. Transfections were performed with human CD3 T cells at approximately 2.5 μg/mL mRNA for approximately 24 hr. For FACS analysis T cells were stained with M1 antibody (Sigma, F3040) that bind a N-terminus FLAG-tag variant sequence on the TTR-023 CAR (sequence provided below) in addition to staining for CD69 (Biolegend, 310930) and CD4 (Biolegend, 344648) to differentiate CD8 from CD4 cells.
LNPs were prepared using the mixing process described in Example 6, the buffer exchange process described in Example 21. Using methods similar to Example 12, hSP34, TRX2, and Ibalizumab Fab-lipid conjugates and a non-T cell specific anti-HER2 lipid-conjugate were post-inserted at various densities (specified in FIGS. 20A and 20B into LNPs containing Lipid 8 and Cy5/GFP mRNA. Transfections were performed with human CD3 T cells at approximately 2.5 μg/mL mRNA for approximately 24 hr and stained for CD69 (Biolegend, 310930) and CD4 (Biolegend, 344648) to differentiate CD8 from CD4 cells by FACS analysis.
LNPs were prepared using the mixing process described in Example 6, the buffer exchange process described in Example 21. […] Levels of transfection of CD3 T cells was measured by flow cytometry. […]

CD69 = CD69 upregulation on T cells after LNP transfection (FACS staining); assay type: cell-based, human; settings: approximately 24 hr after targeted Lipid 8 LNPs at approximately 2.5 μg/mL mRNA
Description: as §1
LNPs were prepared using the mixing process described in Example 6, the buffer exchange process described in Example 21. […]

Ibalizumab: anti-CD4 Fab from Ibalizumab sequence, SEQ ID NO: 10 and 11
% GFP transfection and GFP expression (MFI) of CD8 and CD4 T cells, in words (human CD3 T cells): higher % transfection (FIG. 71A) and GFP expression levels; also recorded: highly specific LNP transfection and protein translation of CD4+ T cells versus CD8+ T cells; also recorded: increase in transfection efficiency going from 2K PEG to 3.4K PEG; also recorded: high binding and transfection of CD4 T cells while displaying minimal off-target binding and transfection of CD8 T cells
CD69 upregulation on CD8 and CD4 T cells, in words (CD69): much lower levels of CD69
